Reference: the NIST ThermoML archive (doi:10.1016/j.jct.2011.04.011)

Conditions: Liquid, Vibrating tube method

COC [dimethyl ether]
mass density [kg/m3]
Conditions | 293.84 K | 303.45 K | 313.18 K | 323 K | 332.83 K | 343.01 K | 353 K | 362.91 K | 372.94 K
1000 kPa | 669.27 | 653.54 | – | – | – | – | – | – | –
3000 kPa | 673.21 | 657.94 | 641.72 | 624.46 | 605.7 | 584.39 | 560.89 | – | –
5000 kPa | 676.85 | 662.06 | 646.5 | 630.01 | 612.33 | 592.63 | 571.39 | 547.69 | 519.39
10000 kPa | 685.08 | 671.42 | 657.11 | 642.19 | 626.46 | 609.39 | 591.7 | 572.99 | 552.4
15000 kPa | 692.61 | 679.73 | 666.38 | 652.54 | 638.17 | 622.87 | 607.19 | 591.04 | 573.78
20000 kPa | 699.44 | 687.19 | 674.68 | 661.65 | 648.33 | 634.17 | 619.91 | 605.41 | 590.14
25000 kPa | 705.75 | 694.14 | 682.06 | 669.81 | 657.3 | 644.06 | 630.86 | 617.51 | 603.55
30000 kPa | 711.53 | 700.39 | 688.96 | 677.2 | 665.34 | 652.87 | 640.46 | 627.99 | 615.07
35000 kPa | 717 | 706.33 | 695.3 | 684.06 | 672.7 | 660.84 | 649.09 | 637.26 | 625.15
40000 kPa | 722.21 | 711.79 | 701.19 | 690.37 | 679.54 | 668.11 | 656.92 | 645.67 | 634.21
50000 kPa | 731.68 | 721.98 | 711.96 | 701.9 | 691.67 | 681.15 | 670.8 | 660.45 | 649.98
60000 kPa | 740.35 | 731.17 | 721.63 | 712.04 | 702.5 | 692.63 | 682.9 | 673.27 | 663.51
70000 kPa | 748.4 | 739.59 | 730.55 | 721.44 | 712.29 | 702.89 | 693.76 | 684.63 | 675.48
